Test results reported in ChEMBL document CHEMBL1132783, “Dibasic inhibitors of human mast cell tryptase. Part 1: synthesis and optimization of a novel class of inhibitors” (Bioorg Med Chem Lett, 2000).

Experiments:
Prothrombin = Prothrombin (Homo sapiens, UniProt P00734); assay: Inhibitory potency against thrombin
Tryptase beta-1 = Tryptase beta-1 (Homo sapiens, UniProt Q15661); assay: Inhibitory potency against tryptase
Serine protease 1 = Serine protease 1 (Homo sapiens, UniProt P07477); assay: Inhibitory potency against trypsin
Plasminogen = Plasminogen (Homo sapiens, UniProt P00747); assay: Inhibitory potency against plasmin
Sequence of Plasminogen (P00747 97-580 limits assumed): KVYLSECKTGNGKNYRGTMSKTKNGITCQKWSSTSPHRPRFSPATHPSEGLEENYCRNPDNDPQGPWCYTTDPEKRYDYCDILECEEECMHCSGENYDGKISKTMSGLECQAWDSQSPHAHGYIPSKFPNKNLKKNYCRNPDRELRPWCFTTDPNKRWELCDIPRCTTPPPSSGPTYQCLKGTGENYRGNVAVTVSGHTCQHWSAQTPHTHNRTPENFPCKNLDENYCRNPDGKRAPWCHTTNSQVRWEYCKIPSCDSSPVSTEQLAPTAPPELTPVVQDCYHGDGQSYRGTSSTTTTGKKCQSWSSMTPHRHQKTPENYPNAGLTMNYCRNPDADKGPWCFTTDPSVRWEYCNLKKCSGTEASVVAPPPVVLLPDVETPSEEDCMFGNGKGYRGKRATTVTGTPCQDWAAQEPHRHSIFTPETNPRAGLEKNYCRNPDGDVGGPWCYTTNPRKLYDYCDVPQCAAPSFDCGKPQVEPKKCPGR
Sequence of Plasminogen (P00747 581-810 limits assumed): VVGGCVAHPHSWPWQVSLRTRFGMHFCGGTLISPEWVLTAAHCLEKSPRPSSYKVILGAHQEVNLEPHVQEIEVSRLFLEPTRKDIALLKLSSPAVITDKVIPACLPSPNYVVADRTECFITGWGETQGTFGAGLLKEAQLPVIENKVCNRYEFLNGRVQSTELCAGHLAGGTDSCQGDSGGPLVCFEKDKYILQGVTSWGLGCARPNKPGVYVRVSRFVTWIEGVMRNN

Sequence of Serine protease 1 (P07477 whole entry): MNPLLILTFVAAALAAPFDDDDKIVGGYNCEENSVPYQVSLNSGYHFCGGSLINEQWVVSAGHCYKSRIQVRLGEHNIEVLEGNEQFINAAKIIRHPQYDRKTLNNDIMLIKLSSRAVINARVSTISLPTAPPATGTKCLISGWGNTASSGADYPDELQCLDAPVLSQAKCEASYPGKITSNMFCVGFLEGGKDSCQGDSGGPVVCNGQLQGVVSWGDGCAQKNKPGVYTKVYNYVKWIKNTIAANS
Sequence of Tryptase beta-1 (Q15661 whole entry): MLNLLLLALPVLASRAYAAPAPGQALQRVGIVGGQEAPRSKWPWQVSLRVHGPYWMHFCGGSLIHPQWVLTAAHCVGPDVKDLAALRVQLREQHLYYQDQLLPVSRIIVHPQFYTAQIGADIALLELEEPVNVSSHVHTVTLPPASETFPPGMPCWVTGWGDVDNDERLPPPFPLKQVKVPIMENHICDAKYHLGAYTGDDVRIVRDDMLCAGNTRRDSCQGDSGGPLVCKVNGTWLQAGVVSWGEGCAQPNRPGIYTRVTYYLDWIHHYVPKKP

Ki (Prothrombin) [µM] | Ki (Tryptase beta-1) [µM] | Ki (Serine protease 1) [µM] | Ki (Plasminogen) [µM] | SMILES
> 1000 | 0.031 | 38 | > 1000 | C[C@@H](NC(=O)OCc1ccc(COC(=O)N[C@H](C)C(=O)NCc2ccc(CN)cc2)cc1)C(=O)NCc1ccc(CN)cc1
> 1000 | 0.009 | 274 | > 1000 | NCc1ccc(CNC(=O)CCCC(=O)NCc2ccc(CNC(=O)CCCC(=O)NCc3ccc(CN)cc3)cc2)cc1
> 1000 | 0.005 | 162 | 214 | CN(Cc1ccc(CN(C)C(=O)CCC(=O)NCc2ccc(CN)cc2)cc1)C(=O)CCC(=O)NCc1ccc(CN)cc1
> 1000 | 0.0006 | – | > 1000 | NCc1ccc(CNC(=O)CNC(=O)OCc2ccc(COC(=O)NCC(=O)NCc3ccc(CN)cc3)cc2)cc1
> 1000 | 0.68 | 73 | > 1000 | N=C(N)Nc1ccc(CNC(=O)CC(=O)NCc2ccc(CNC(=O)CC(=O)NCc3ccc(NC(=N)N)cc3)cc2)cc1
> 1000 | 0.04 | 146 | > 1000 | N=C(N)Nc1ccc(CNC(=O)CCC(=O)NCc2ccc(CNC(=O)CCC(=O)NCc3ccc(NC(=N)N)cc3)cc2)cc1
435 | – | 39 | 494 | N=C(N)Nc1ccc(CNC(=O)N2CCN(C(=O)O[C@H]3CCC[C@@H](OC(=O)N4CCN(C(=O)NCc5ccc(NC(=N)N)cc5)CC4)CCC3)CC2)cc1
> 1000 | 0.01 | 56 | > 1000 | NC(N)=Nc1ccc(CNC(=O)CNC(=O)OCc2ccc(COC(=O)NCC(=O)NCc3ccc(N=C(N)N)cc3)cc2)cc1
> 1000 | 15 | 182 | > 1000 | N=C(N)Nc1ccc(CNC(=O)N2CCN(C(=O)O[C@H]3CCC[C@@H](OC(=O)N4CCN(C(=O)NCc5ccccc5)CC4)CCC3)CC2)cc1
> 1000 | 0.366 | 273 | 83 | C[C@H](NC(=O)OCc1ccc(COC(=O)N[C@@H](C)C(=O)NCc2ccc(CN)cc2)cc1)C(=O)NCc1ccc(CN)cc1
492 | 0.1 | 70 | > 1000 | N=C(N)Nc1ccc(CNC(=O)CCCC(=O)NCc2ccc(CNC(=O)CCCC(=O)NCc3ccc(NC(=N)N)cc3)cc2)cc1
14 | 101 | 44 | > 1000 | O=C(NCc1ccccc1)N1CCN(C(=O)O[C@H]2CCC[C@@H](OC(=O)N3CCN(C(=O)NCc4ccccc4)CC3)CCC2)CC1
> 1000 | 0.09 | 72 | > 1000 | N=C(N)Nc1ccc(CNC(=O)CCNC(=O)OCc2ccc(COC(=O)NCCC(=O)NCc3ccc(NC(=N)N)cc3)cc2)cc1
> 1000 | 0.002 | 78 | > 1000 | NC(N)=Nc1ccc(CNC(=O)NCC(=O)O[C@H]2CCC[C@@H](OC(=O)CNC(=O)NCc3ccc(N=C(N)N)cc3)CCC2)cc1
> 1000 | 2 | > 1000 | > 1000 | CN(Cc1ccc(CN)cc1)C(=O)CCC(=O)NCc1ccc(CNC(=O)CCC(=O)N(C)Cc2ccc(CN)cc2)cc1
> 1000 | 0.005 | 50 | > 230 | CN(CC(=O)NCc1ccc(CN)cc1)C(=O)OCc1ccc(COC(=O)N(C)CC(=O)NCc2ccc(CN)cc2)cc1

SMILES | Ki (Prothrombin) [µM] | Ki (Tryptase beta-1) [µM] | Ki (Serine protease 1) [µM] | Ki (Plasminogen) [µM]
NCc1ccc(CNC(=O)CC(=O)NCc2ccc(CNC(=O)CC(=O)NCc3ccc(CN)cc3)cc2)cc1 | > 1000 | 0.15 | 317 | > 1000
NCc1ccc(CNC(=O)CCC(=O)NCc2ccc(CNC(=O)CCC(=O)NCc3ccc(CN)cc3)cc2)cc1 | > 1000 | 0.003 | 237 | 769
